According to ChEMBL document CHEMBL1938343, “Lead optimisation of selective non-zinc binding inhibitors of MMP13. Part 2” (Bioorg Med Chem Lett, 2012):

Legend:
[1] = Renal elimination in rat at 2 mg/kg, iv; format: ADME, organism-based; parameters: dose 2 mg/kg, route intravenous; conditions: urine, read-out: Ae
Cytochrome P450 2C9 = Cytochrome P450 2C9 (Homo sapiens, UniProt P11712); experiment: Inhibition of CYP2C9; format: ADME; conditions: read-out: IC50
[2] = Fraction unbound in human; format: ADME, organism-based; conditions: in vivo
[3] = Clearance in dog at 1 mg/kg, iv and 1 mg/kg, po; format: ADME, organism-based, Canis lupus familiaris; conditions: in vivo
Cytochrome P450 3A4 = Cytochrome P450 3A4 (Homo sapiens, UniProt P08684); experiment: Inhibition of CYP3A4; format: ADME; conditions: read-out: IC50
Chain of Cytochrome P450 3A4 (P08684 whole entry): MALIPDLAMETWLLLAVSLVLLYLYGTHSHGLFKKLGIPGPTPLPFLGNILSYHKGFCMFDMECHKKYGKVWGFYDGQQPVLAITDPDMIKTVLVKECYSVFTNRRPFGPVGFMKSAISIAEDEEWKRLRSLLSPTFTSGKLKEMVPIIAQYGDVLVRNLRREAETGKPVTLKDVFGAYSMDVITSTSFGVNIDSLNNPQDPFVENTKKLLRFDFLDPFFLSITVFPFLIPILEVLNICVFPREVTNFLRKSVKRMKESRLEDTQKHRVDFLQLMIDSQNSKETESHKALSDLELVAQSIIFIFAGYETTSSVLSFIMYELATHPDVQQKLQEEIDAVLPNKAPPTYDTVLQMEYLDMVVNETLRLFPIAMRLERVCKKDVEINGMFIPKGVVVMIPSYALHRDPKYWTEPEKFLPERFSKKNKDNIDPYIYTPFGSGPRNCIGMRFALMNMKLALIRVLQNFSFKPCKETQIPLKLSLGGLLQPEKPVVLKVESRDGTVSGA

Cytochrome P450 2C19 = Cytochrome P450 2C19 (Homo sapiens, UniProt P33261); experiment: Inhibition of CYP2C19; format: ADME; conditions: read-out: IC50
Chain of Cytochrome P450 2C19 (P33261 whole entry): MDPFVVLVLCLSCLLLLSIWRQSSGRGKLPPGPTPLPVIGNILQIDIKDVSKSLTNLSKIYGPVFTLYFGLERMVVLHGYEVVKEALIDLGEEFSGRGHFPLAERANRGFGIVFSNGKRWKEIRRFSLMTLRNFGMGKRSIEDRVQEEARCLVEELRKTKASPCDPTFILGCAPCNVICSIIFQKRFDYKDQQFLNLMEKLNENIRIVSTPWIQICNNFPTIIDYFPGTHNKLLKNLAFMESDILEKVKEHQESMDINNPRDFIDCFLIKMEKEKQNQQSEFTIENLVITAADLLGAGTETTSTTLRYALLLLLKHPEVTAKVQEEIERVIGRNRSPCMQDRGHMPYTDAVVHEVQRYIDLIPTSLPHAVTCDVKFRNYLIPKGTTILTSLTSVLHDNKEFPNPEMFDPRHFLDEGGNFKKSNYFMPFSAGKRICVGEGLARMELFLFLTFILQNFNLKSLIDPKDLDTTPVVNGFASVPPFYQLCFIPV

[4] = Volume of distribution at steady state in rat at 2 mg/kg, iv; format: ADME, organism-based; parameters: dose 2 mg/kg, route intravenous; conditions: in vivo, read-out: Vdss
Cytochrome P450 2D6 = Cytochrome P450 2D6 (Homo sapiens, UniProt P10635); experiment: Inhibition of CYP2D6; format: ADME; conditions: read-out: IC50
Chain of Cytochrome P450 2D6 (P10635 whole entry): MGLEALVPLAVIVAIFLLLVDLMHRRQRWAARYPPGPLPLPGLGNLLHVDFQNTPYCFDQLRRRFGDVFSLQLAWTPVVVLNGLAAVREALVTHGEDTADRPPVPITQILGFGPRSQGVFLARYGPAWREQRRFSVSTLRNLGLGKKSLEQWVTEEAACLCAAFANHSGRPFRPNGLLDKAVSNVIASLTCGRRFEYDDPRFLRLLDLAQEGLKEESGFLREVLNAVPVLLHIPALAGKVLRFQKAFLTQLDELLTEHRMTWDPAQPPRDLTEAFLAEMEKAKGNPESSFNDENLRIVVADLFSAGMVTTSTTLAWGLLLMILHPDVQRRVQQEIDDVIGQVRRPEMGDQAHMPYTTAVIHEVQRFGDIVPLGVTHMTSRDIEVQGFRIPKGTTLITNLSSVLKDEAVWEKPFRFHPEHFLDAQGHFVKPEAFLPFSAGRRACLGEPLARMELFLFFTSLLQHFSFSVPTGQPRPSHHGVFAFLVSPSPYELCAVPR

[5] = Intrinsic clearance in human hepatocytes assessed per 10^6 cells; format: ADME, cell-based, Hepatocyte; conditions: read-out: CLH
[6] = Fraction unbound in rat; format: ADME, organism-based; conditions: in vivo
[7] = target: T1, Matrix metalloproteinase-19 (Homo sapiens, UniProt Q99542); experiment: Inhibition of MMP19 using Mca-Pro-cyclohexyl-Ala-Gly-Nva-His-Ala- Dap(Dnp)-NH2 as substrate by fluorometric analysis
T1 sequence (Q99542 whole entry): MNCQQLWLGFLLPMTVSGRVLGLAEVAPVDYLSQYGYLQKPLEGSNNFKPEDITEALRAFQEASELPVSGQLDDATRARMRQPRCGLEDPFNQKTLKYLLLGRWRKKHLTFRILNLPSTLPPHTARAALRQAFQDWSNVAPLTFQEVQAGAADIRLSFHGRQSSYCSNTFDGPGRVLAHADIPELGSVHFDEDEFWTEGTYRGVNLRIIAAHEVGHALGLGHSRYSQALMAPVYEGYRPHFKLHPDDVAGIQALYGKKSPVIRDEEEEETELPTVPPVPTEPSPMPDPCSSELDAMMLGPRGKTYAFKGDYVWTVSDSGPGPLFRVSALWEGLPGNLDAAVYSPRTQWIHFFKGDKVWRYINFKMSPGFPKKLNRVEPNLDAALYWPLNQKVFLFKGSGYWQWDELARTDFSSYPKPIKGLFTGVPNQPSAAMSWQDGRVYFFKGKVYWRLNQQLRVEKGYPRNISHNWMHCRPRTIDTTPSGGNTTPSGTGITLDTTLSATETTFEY

[8] = Fraction unbound in dog; format: ADME, organism-based, Canis lupus familiaris; conditions: in vivo
[9] = target: Matrix metalloproteinase-9 (Homo sapiens, UniProt P14780); experiment: Inhibition of MMP9 using Mca-Pro-cyclohexyl-Ala-Gly-Nva-His-Ala- Dap(Dnp)-NH2 as substrate by fluorometric analysis; conditions: read-out: IC50
Chain of Matrix metalloproteinase-9 (P14780 whole entry): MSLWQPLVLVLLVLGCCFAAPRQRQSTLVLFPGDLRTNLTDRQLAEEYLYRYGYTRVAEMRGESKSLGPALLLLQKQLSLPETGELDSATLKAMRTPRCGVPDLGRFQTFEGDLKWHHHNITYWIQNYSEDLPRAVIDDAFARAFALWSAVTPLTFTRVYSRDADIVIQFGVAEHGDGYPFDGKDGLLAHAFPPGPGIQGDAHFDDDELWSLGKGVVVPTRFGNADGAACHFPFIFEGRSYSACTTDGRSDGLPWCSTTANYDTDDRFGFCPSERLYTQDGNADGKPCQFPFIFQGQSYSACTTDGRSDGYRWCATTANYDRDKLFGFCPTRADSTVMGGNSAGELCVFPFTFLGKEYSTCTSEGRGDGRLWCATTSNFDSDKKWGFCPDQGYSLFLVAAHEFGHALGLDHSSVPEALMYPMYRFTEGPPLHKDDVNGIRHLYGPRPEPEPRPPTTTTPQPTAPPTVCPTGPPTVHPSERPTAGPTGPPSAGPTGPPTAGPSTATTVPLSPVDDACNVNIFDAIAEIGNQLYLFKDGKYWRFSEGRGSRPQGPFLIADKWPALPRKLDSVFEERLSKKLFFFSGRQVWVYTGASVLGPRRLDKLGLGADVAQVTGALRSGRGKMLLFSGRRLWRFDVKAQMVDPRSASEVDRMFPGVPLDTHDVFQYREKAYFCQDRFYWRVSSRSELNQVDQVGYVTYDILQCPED

[10] = Apparent permeability across apical to basolateral side in human Caco2 cells at 10 uM; format: ADME, cell-based; conditions: Caco-2
[11] = Cytotoxicity in mouse spleen macrophages assessed as phospholipidosis; conditions: Macrophage
[12] = Half life in dog at 1 mg/kg, iv and 1 mg/kg, po; format: ADME, organism-based, Canis lupus familiaris; conditions: in vivo
[13] = target: 72 kDa type IV collagenase (Homo sapiens, UniProt P08253); experiment: Inhibition of MMP2 using Mca-Pro-cyclohexyl-Ala-Gly-Nva-His-Ala- Dap(Dnp)-NH2 as substrate by fluorometric analysis; conditions: read-out: IC50
Chain of 72 kDa type IV collagenase (P08253 whole entry): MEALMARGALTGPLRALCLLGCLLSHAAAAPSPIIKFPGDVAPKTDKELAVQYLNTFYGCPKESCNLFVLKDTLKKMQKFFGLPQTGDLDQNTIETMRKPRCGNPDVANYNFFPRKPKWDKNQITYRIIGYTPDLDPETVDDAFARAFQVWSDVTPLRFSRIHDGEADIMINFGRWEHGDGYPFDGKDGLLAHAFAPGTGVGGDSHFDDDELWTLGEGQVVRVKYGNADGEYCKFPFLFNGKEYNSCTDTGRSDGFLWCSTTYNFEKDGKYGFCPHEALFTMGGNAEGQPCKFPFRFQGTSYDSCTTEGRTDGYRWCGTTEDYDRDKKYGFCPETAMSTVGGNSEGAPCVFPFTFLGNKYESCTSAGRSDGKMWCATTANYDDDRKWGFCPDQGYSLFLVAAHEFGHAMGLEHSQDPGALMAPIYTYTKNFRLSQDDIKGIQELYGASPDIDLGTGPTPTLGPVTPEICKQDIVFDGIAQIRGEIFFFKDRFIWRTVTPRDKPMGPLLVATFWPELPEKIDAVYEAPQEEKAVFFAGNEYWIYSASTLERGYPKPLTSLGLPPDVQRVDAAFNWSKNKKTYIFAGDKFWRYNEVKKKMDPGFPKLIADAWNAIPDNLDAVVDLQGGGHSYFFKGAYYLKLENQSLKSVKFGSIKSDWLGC

Rattus norvegicus = experiment: Oral bioavailability in rat; format: ADME, organism-based; conditions: in vivo
Interstitial collagenase = target: T2, Interstitial collagenase (Homo sapiens, UniProt P03956); experiment: Inhibition of MMP1 using Mca-Pro-cyclohexyl-Ala-Gly-Nva-His-Ala- Dap(Dnp)-NH2 as substrate by fluorometric analysis
T2 sequence (P03956 whole entry): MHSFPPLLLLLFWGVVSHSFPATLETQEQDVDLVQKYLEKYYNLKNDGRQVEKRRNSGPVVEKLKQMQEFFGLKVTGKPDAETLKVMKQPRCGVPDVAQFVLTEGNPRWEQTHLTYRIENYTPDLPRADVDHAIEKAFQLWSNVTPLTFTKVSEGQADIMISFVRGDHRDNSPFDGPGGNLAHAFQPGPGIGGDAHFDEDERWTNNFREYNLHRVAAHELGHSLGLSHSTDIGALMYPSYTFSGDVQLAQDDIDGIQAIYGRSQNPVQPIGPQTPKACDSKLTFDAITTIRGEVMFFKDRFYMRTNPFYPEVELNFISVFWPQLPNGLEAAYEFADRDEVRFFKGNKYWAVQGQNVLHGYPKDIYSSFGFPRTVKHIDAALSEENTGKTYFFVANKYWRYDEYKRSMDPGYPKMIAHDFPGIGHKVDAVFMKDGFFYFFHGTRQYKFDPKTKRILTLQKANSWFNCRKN

Stromelysin-1 = Stromelysin-1 (Homo sapiens, UniProt P08254); experiment: Inhibition of MMP3 using Mca-Pro-cyclohexyl-Ala-Gly-Nva-His-Ala- Dap(Dnp)-NH2 as substrate by fluorometric analysis
Chain of Stromelysin-1 (P08254 whole entry): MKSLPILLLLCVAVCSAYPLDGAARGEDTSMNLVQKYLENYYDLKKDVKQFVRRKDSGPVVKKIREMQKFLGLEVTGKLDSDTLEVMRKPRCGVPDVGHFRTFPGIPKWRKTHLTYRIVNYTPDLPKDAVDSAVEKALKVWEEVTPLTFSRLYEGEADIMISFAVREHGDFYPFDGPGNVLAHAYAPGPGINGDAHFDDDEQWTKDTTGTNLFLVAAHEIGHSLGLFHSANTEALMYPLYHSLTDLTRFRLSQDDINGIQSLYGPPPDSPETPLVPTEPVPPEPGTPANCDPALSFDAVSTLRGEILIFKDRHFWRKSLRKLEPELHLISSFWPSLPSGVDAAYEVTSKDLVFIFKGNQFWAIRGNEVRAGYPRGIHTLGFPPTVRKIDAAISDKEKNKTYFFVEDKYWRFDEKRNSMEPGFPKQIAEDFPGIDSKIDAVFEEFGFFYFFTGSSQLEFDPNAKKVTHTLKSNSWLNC

[14] = Volume of distribution at steady state in dog at 1 mg/kg, iv and 1 mg/kg, po; format: ADME, organism-based, Canis lupus familiaris; conditions: in vivo, read-out: Vdss
[15] = target: Matrix metalloproteinase-14 (Homo sapiens, UniProt P50281); experiment: Inhibition of MMP14 using Mca-Pro-cyclohexyl-Ala-Gly-Nva-His-Ala- Dap(Dnp)-NH2 as substrate by fluorometric analysis; conditions: read-out: IC50
[16] = Thermodynamic solubility of the compound
Hepatocyte = experiment: Intrinsic clearance in Sprague-Dawley rat hepatocytes assessed per 10^6 cells; format: ADME, cell-based
[17] = Apparent permeability across basolateral to apical side in human Caco2 cells at 10 uM; format: ADME, cell-based; conditions: Caco-2
[18] = Oral bioavailability in dog; format: ADME, organism-based, Canis lupus familiaris; conditions: in vivo
[19] = Lipophilicity, log D of the compound; conditions: octanol/water
[20] = Half life in rat at 2 mg/kg, iv; format: ADME, organism-based; parameters: dose 2 mg/kg, route intravenous; conditions: in vivo
[21] = target: Macrophage metalloelastase (Homo sapiens, UniProt P39900); experiment: Inhibition of MMP12 using Mca-Pro-cyclohexyl-Ala-Gly-Nva-His-Ala- Dap(Dnp)-NH2 as substrate by fluorometric analysis; conditions: read-out: IC50
Chain of Macrophage metalloelastase (P39900 whole entry): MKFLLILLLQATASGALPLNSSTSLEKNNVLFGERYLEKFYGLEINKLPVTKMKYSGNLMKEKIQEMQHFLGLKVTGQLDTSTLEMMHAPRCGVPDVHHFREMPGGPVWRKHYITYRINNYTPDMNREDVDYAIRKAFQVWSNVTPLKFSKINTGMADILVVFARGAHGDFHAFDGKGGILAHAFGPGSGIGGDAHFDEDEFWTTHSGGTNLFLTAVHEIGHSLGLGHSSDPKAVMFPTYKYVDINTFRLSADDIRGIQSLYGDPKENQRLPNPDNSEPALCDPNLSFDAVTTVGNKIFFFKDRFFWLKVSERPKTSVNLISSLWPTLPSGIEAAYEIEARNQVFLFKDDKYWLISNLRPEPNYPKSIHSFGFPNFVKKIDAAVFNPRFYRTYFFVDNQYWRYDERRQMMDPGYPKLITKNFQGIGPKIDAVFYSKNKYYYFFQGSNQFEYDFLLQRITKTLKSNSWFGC

Chain of Cytochrome P450 2C9 (P11712 whole entry): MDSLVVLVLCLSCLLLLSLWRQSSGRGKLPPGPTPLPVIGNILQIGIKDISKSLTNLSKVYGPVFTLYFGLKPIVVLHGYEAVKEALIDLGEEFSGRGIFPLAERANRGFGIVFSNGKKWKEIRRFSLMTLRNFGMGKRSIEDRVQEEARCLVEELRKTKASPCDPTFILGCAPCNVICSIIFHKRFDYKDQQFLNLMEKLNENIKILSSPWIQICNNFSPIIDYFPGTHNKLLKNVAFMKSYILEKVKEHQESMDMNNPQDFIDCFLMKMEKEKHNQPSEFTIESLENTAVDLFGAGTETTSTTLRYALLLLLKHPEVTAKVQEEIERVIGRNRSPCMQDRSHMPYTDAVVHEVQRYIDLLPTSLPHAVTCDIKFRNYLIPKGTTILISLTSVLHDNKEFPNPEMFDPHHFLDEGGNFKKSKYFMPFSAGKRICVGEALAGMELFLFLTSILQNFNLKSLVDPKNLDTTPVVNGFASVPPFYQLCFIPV

O=C(NC1CCCS(=O)(=O)C1)c1ccc(Oc2ccc(C#C[C@]3(O)CN4CCC3CC4)cc2)cc1 (single isomer, unassigned; diastereomer 1)
dose excreted [1]: < 1%
IC50 (Cytochrome P450 2C9): > 10 µM
fraction unbound [2]: 0.25
clearance [3]: 13 mL/min/kg
IC50 (Cytochrome P450 3A4): > 10 µM
IC50 (Cytochrome P450 2C19): > 10 µM
Vd [4]: 5.9 L/kg
IC50 (Cytochrome P450 2D6): > 10 µM
hepatocyte CLint [5]: < 2 µL/min/1e6 cells
fraction unbound [6]: 0.27
IC50 [7]: > 10 µM
fraction unbound [8]: 0.33
IC50 [9]: > 10 µM
Papp A→B at 10 µM [10]: 1.3 ×10⁻⁶ cm/s
EC50 [11]: 116 µM
half-life [12]: 5 h
IC50 [13]: 5.1 µM
F (Rattus norvegicus): 35%
IC50 (Interstitial collagenase): > 10 µM
IC50 (Stromelysin-1): > 10 µM
Vd [14]: 3.9 L/kg
IC50 [15]: > 10 µM
Therm_solubility [16]: 160 µM
CLH (Hepatocyte): 2.9 µL/min
Papp B→A at 10 µM [17]: 43.5 ×10⁻⁶ cm/s
bioavailability [18]: 21%
logD [19]: 1.4
half-life [20]: 4.8 h
IC50 [21]: > 10 µM
